Assay results reported in patent US9545393B2, “Methods and compositions for treating pain” (The Board of Trustees of the Leland Stanford Junior …, priority 2012, dated 2017).
Entries after “also recorded” stand apart in the source; their conditions may differ.

Assays:
malondialdehyde (MDA) = assay: Thiobarbituric acid-reactive substance assay (malondialdehyde) in paw homogenate; assay type: in vivo, rat; conditions: rats, 3 hours after carrageenan; P<0.05
Procedure: Thiobarbituric acid-reactive substance assay. Thiobarbituric acid-reactive substance (TBARS) was measured using an Oxi-Tek TBARS assay kit (ZeptoMetrix, Buffalo, N.Y.). In brief, 100 μL of plantar homogenates were mixed with 100 μl sodium dodecyl sulfonate solution. TBA/buffer reagent was prepared by mixing 0.5 g thiobarbituric acid with 50 ml acetic acid and 50 ml NaOH. TBA/buffer reagent (2.5 ml) was added to 200 μL sample/sodium dodecyl sulfonate mixture and incubated at 95° C. in capped tubes for 60 min. The samples were cooled to room temperature in an ice bath for 10 min and centrifuged at 3,000 g for 15 min. The supernatants were removed, and fluorescence intensity was measured in semi-microcuvettes in a fluorometer (Bio-Rad Laboratories, Hercules, Calif.). The concentration of TBARS was expressed in pmol/mg protein by interpolation from a standard curve of malondialdehyde at 0-200 pmol concentrations. The results are expressed as percent control.

acetaldehyde = assay: Tissue acetaldehyde measurement in paw by LC-MS/MS; assay type: in vivo, rat; conditions: rats, Alda-1 versus carrageenan alone
Procedure: Tissue Acetaldehyde Measurements. Paw samples were quickly sealed in microcentrifuge tubes, weighed and 3 volumes (v/w) of 0.75 mg/mL Liberase T L (Roche, Indianapolis, Ind.) was added for overnight digestion at 37° C. Acetaldehyde standard solutions (100-5000 ng/mL) and the tissue samples were reacted with saturated 2,4 dinitrophenylhydrazine solution.
To establish LC-MS/MS conditions, the standard of acetaldehyde 2,4-dinitrophenyl-hydrazine (DNPH) was used. Chromatograms of standards were used to establish characteristic retention times of acetaldehyde, and verified the MS signal was linear over the range of 0.1-5 μg/mL. The acetaldehyde peak area derivatives were calculated and plotted against the concentration of the calibration standards using Analyst®1.5.1 software.
Aliquots (30 μL) were taken from each paw homogenate sample. Acetaldehyde in samples of paw homogenate was extracted by adding methanol containing 40 μg/mL DNPH (150 μL). Both unknown samples and standards were vortexed and centrifuged to separate the precipitate. Ten microliters of sample extracts were injected into LC MS/MS for analysis. Automatic peak detection, integration and data processing were performed by the AB SCIEX Analyst 1.5.1 software package. Concentrations of acetaldehyde were calculated by plotting peak area of unknown samples against a standard curve. […]

[1] = tested on: early growth response protein 1 (EGR1); assay: EGR1 immunohistochemistry of L4-L6 spinal cord; assay type: in vivo, rat; conditions: rats, 3 hours after carrageenan; carrageenan alone increased ~5 fold
Procedure: Immunohistochemistry. Animals were anesthetized with ketamine (90 mg/kg) and xylazine (15 mg/kg) after 3 hours of the experimental protocol. Subsequently, animals were perfused with 4% paraformaldehyde (PFA) in 0.1 M phosphate buffer (PB, pH 7.4). Spinal cord sections (L4-L6) were removed, post-fixed for 4 h in PFA (4%), and transferred to a 30% sucrose solution in PB to ensure cryoprotection. […] The sections were immunostained for early growth response-1 gene (EGR1) expression, using a rabbit polyclonal antibody (Santa Cruz Biotechnology 1:500) in PB containing 0.3% Triton X-100 and 5% normal donkey serum. Incubations with primary antibody were conducted overnight at 24° C. The sections were then washed in PB and incubated with a biotinylated donkey anti-rabbit serum (Vector, Burlingame 1:200) in PB for 2 h at 24° C. The sections were washed again in PB and incubated with the avidin-biotin-peroxidase complex (ABC Elite, Vector Labs, USA). The sections were then reacted with 0.05% 3,3-diaminobenzidine and 0.01% hydrogen peroxide in PB. Intensification was conducted with 0.05% osmium tetroxide in water. The sections were dehydrated, cleared and mounted on a cover-slip. Normal rat serum served as control. Digital images of light microscopy were collected and cells with positive EGR were counted.

ALDH2 *1/*2 mice = assay: Acetaldehyde vapor experiments with sub-threshold carrageenan, von Frey nociception; assay type: in vivo, mouse; conditions: ALDH2 *1/*2 mice exposed to acetaldehyde vapor, with Alda-1
Procedure: von Frey hair testing method: Hind paw nociception was assessed with six different von Frey hairs (0.03, 0.17, 0.41, 0.69, 1.20 and 1.48 g). Mice were placed individually in a plastic cage with a wire mesh bottom. After acclimation for at least 15 min, a von Frey hair was pressed perpendicularly against the plantar skin surface and held for approximately 5 seconds until hair slightly buckled. Using the same stimulation intensity […], each individual hair was applied six times to each hind paw at intervals of several seconds.
Since the response to each von Frey stimulus is fairly subjective, we used a method of objectifying these nociceptive responses by assigning a specific number to the response. Our scoring system consisted of: […], 1=withdraws paw from hair and 0=immediate flinching or hind paw licking. This method was previously shown by others to provide a reliable, objective assessment of pain response using von Frey hairs (Dale C S, et al., (2009) Analgesic properties of S100A9 C-terminal domain: a mechanism dependent on calcium channel inhibition. Fundamental & clinical pharmacology 23: 427-438; Takasaki I, et al., (2000) Allodynia and hyperalgesia induced by herpes simplex virus type-1 infection in mice. Pain 86: 95-101).
Acetaldehyde Experiments. […] A subset of these mice was exposed to acetaldehyde vapor with or without Alda-1. […]

[2] = previously shown (Chen 2008; Koda 2010); cited from earlier work

With `O=C(NCc1ccc2c(c1)OCO2)c1c(Cl)cccc1Cl` [Alda-1, N-(1,3-benzodioxol-5-ylmethyl)-2,6-dichlorobenzamide] the “Malondialdehyde (MDA) levels in the inflamed paw” value (malondialdehyde (MDA)) was “reduced”, the “Decrease of the level of acetaldehyde in paw” value (acetaldehyde; carrageenan-induced hyperalgesia) was ~50% and the “Carrageenan-induced acetaldehyde levels in inflamed paw (FIG. 2F)” value (acetaldehyde; P<0.05) was “significantly reduced”. The “EGR1 levels in L4-6 spinal cord (marker of hyperalgesia)” value [1] was “brought EGR1 levels to those seen in baseline; also recorded: brought back to basal levels”, the “Acetaldehyde-exacerbated hyperalgesia after carrageenan (50 μg)” value (ALDH2 *1/*2 mice) was “rescued; also recorded: reversed” and the “Cardiovascular benefits after acute myocardial infarction” value [2] was “reducing infarct size and arrhythmias”.
